Relative viability data for 4 cell lines are collected here from the supplement of paper PMC10307832.

Holding throughout (experiment): relative viability (nuclei count vs DMSO), 5 days (fraction); higher = more cells survive
Compound in experiment [1]: CCc1cnn2c(NCc3ccc[n+]([O-])c3)cc(N3CCCC[C@H]3CCO)nc12 [Dinaciclib] + COc1cc2c(Oc3ccc(NC(=O)C4(C(=O)Nc5ccc(F)cc5)CC4)cc3F)ccnc2cc1OCCCN1CCOCC1 [Foretinib] (partner 0.25 µM)
Summed up: (§1)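 Each reported value is a median over duplicate plates. It expresses relative viability: treated-well nuclei count divided by vehicle-well nuclei count. Lung cancer cell lines in 1536-well plates were dosed by pin tool a day after seeding, alone with one drug or with a fixed anchor-drug dose plus five library-drug doses (not always all listed) in √10 steps, and nuclei were counted after 5 days.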

Compound in experiment [2]: CCc1cnn2c(NCc3ccc[n+]([O-])c3)cc(N3CCCC[C@H]3CCO)nc12 [Dinaciclib] + CS(=O)(=O)CCNCc1ccc(-c2ccc3ncnc(Nc4ccc(OCc5cccc(F)c5)c(Cl)c4)c3c2)o1 [Lapatinib] (partner 2 µM)
A digest of the protocol: as §1

Compound in experiment [3]: CCc1cnn2c(NCc3ccc[n+]([O-])c3)cc(N3CCCC[C@H]3CCO)nc12 [Dinaciclib] + Cc1nc(Nc2ncc(C(=O)Nc3c(C)cccc3Cl)s2)cc(N2CCN(CCO)CC2)n1 [Dasatinib] (partner 0.075 µM)
Summed up: as §1

Compound in experiment [4]: CCc1cnn2c(NCc3ccc[n+]([O-])c3)cc(N3CCCC[C@H]3CCO)nc12 [Dinaciclib] + CC1(C)CCC(c2ccc(Cl)cc2)=C(CN2CCN(c3ccc(C(=O)NS(=O)(=O)c4ccc(N[C@H](CCN5CCOCC5)CSc5ccccc5)c(S(=O)(=O)C(F)(F)F)c4)cc3)CC2)C1 [Navitoclax] (partner 0.5 µM)
Summed up: as §1

Compound in experiment [5]: CCc1cnn2c(NCc3ccc[n+]([O-])c3)cc(N3CCCC[C@H]3CCO)nc12 [Dinaciclib] + CC(=O)Nc1cccc(-n2c(=O)n(C3CC3)c(=O)c3c(Nc4ccc(I)cc4F)n(C)c(=O)c(C)c32)c1 [Trametinib] (partner 0.02 µM)
A digest of the protocol: as §1

On to NCI-H1734, for which the relative viability in experiment [1] (first compound 0.009487 µM) came out at 0.803; in experiment [1] (first compound 0.03 µM), 0.164; in experiment [1] (first compound 0.09487 µM), 0.132; in experiment [1] (first compound 0.3 µM), 0.129; in experiment [2] (first compound 0.009487 µM), 0.72; in experiment [2] (first compound 0.03 µM), 0.158. The relative viability in experiment [2] (first compound 0.09487 µM) is 0.134; in experiment [2] (first compound 0.3 µM), 0.143; in experiment [3] (first compound 0.009487 µM) it was 0.373; in experiment [3] (first compound 0.03 µM) it was 0.122; in experiment [3] (first compound 0.09487 µM), 0.142; in experiment [3] (first compound 0.3 µM) it was 0.119. Moreover, the relative viability is 0.714 in experiment [4] (first compound 0.009487 µM); 0.122 in experiment [4] (first compound 0.03 µM); 0.07 in experiment [4] (first compound 0.09487 µM); 0.0846 in experiment [4] (first compound 0.3 µM); 0.595 in experiment [5] (first compound 0.009487 µM); 0.278 in experiment [5] (first compound 0.03 µM). In addition, the relative viability came to 0.146 in experiment [5] (first compound 0.09487 µM) and 0.136 in experiment [5] (first compound 0.3 µM).

With NCI-H1755, the relative viability in experiment [1] (first compound 0.009487 µM) turned out to be 0.917; in experiment [1] (first compound 0.03 µM) it was 0.516; in experiment [1] (first compound 0.09487 µM) it was 0.198; in experiment [1] (first compound 0.3 µM), 0.196; in experiment [2] (first compound 0.009487 µM) it was 1.05; in experiment [2] (first compound 0.03 µM) it was 0.829. The relative viability in experiment [2] (first compound 0.09487 µM) worked out at 0.163; in experiment [2] (first compound 0.3 µM), 0.184; in experiment [3] (first compound 0.009487 µM) it was 0.427; in experiment [3] (first compound 0.03 µM) it was 0.194; in experiment [3] (first compound 0.09487 µM), 0.225; in experiment [3] (first compound 0.3 µM), 0.191. In addition, the relative viability in experiment [4] (first compound 0.009487 µM) is 1.01; in experiment [4] (first compound 0.03 µM), 0.596; in experiment [4] (first compound 0.09487 µM), 0.122; in experiment [4] (first compound 0.3 µM) it was 0.123; in experiment [5] (first compound 0.009487 µM) it was 0.786; in experiment [5] (first compound 0.03 µM) it was 0.46. The values for the relative viability in experiment [5] (first compound 0.09487 µM) and in experiment [5] (first compound 0.3 µM) were 0.225 and 0.202, respectively.

As for NCI-H1793, the relative viability in experiment [1] (first compound 0.009487 µM) stood at 0.344; in experiment [1] (first compound 0.03 µM) it was 0.171; in experiment [1] (first compound 0.09487 µM) it was 0.141; in experiment [1] (first compound 0.3 µM), 0.143; in experiment [2] (first compound 0.009487 µM), 0.389; in experiment [2] (first compound 0.03 µM) it was 0.112. Moreover, the relative viability in experiment [2] (first compound 0.09487 µM) amounted to 0.18; in experiment [2] (first compound 0.3 µM), 0.147; in experiment [3] (first compound 0.009487 µM), 0.372; in experiment [3] (first compound 0.03 µM) it was 0.2; in experiment [3] (first compound 0.09487 µM), 0.0986; in experiment [3] (first compound 0.3 µM), 0.13. In addition, the relative viability in experiment [4] (first compound 0.009487 µM) was determined as 0.42; in experiment [4] (first compound 0.03 µM), 0.17; in experiment [4] (first compound 0.09487 µM), 0.139; in experiment [4] (first compound 0.3 µM) it was 0.134; in experiment [5] (first compound 0.009487 µM), 0.388; in experiment [5] (first compound 0.03 µM), 0.174. The relative viability in experiment [5] (first compound 0.09487 µM) was 0.15; in experiment [5] (first compound 0.3 µM) it was 0.151.

As to NCI-H1915, the relative viability in experiment [1] (first compound 0.009487 µM) was found to be 0.731; in experiment [1] (first compound 0.03 µM), 0.193; in experiment [1] (first compound 0.09487 µM) it was 0.124; in experiment [1] (first compound 0.3 µM), 0.173; in experiment [2] (first compound 0.009487 µM), 0.715; in experiment [2] (first compound 0.03 µM), 0.134. Also, the relative viability in experiment [2] (first compound 0.09487 µM) stood at 0.102; in experiment [2] (first compound 0.3 µM), 0.111; in experiment [3] (first compound 0.009487 µM) it was 0.301; in experiment [3] (first compound 0.03 µM) it was 0.149; in experiment [3] (first compound 0.09487 µM) it was 0.121; in experiment [3] (first compound 0.3 µM), 0.123. The relative viability in experiment [4] (first compound 0.009487 µM) amounted to 0.759; in experiment [4] (first compound 0.03 µM), 0.267; in experiment [4] (first compound 0.09487 µM), 0.058; in experiment [4] (first compound 0.3 µM) it was 0.0578; in experiment [5] (first compound 0.009487 µM), 0.343; in experiment [5] (first compound 0.03 µM), 0.225. Besides, the figures for the relative viability in experiment [5] (first compound 0.09487 µM) and in experiment [5] (first compound 0.3 µM) were 0.114 and 0.0978, respectively.
